Blank lines part the entries; values can stand above or below the molecule they belong to.
Experiments:
[1] = target: T1, Chemerin-like receptor 1 (Homo sapiens) (UniProt Q99788); conditions: CAL1
T1 sequence (whole entry): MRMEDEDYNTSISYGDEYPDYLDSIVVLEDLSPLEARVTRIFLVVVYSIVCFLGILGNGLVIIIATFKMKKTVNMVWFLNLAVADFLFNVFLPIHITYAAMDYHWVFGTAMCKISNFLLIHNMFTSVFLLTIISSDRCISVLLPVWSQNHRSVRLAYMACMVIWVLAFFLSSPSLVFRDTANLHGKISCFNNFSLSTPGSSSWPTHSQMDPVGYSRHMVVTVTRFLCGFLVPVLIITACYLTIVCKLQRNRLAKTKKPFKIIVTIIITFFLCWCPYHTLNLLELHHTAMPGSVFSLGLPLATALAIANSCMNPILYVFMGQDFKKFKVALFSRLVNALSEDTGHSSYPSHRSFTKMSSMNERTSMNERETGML

[2] = Drug concentration in cynomolgus monkey plasma at 1 mg/kg, po after 8 hrs; type: ADME, organism-based, Macaca fascicularis
[3] = Cmax in cynomolgus monkey at 1 mg/kg, po; type: ADME, organism-based, Macaca fascicularis; design: dose 1 mg/kg, route po; conditions: in vivo
[4] = Half life in cynomolgus monkey at 1 mg/kg, po; type: ADME, organism-based, Macaca fascicularis; conditions: in vivo
[5] = MRT in cynomolgus monkey at 1 mg/kg, po; type: ADME, organism-based, Macaca fascicularis; conditions: in vivo
[6] = AUC(0 to infinity) in cynomolgus monkey at 1 mg/kg, po; type: ADME, organism-based, Macaca fascicularis; design: time infinity, dose 1 mg/kg, route po; conditions: in vivo
[7] = Tmax in cynomolgus monkey at 1 mg/kg, po; type: ADME, organism-based, Macaca fascicularis; conditions: in vivo
[8] = MRT in cynomolgus monkey at 0.3 to 1 mg/kg, po; type: ADME, organism-based, Macaca fascicularis; conditions: in vivo, dose 0.3-1 mg/kg
[9] = Cmax in cynomolgus monkey at 0.3 to 1 mg/kg, po; type: ADME, organism-based, Macaca fascicularis; design: route po; conditions: in vivo, dose 0.3-1 mg/kg
[10] = Half life in cynomolgus monkey at 0.3 to 1 mg/kg, po; type: ADME, organism-based, Macaca fascicularis; conditions: in vivo, dose 0.3-1 mg/kg
[11] = AUC(0 to infinity) in cynomolgus monkey at 0.3 to 1 mg/kg, po; type: ADME, organism-based, Macaca fascicularis; design: route po; conditions: in vivo, dose 0.3-1 mg/kg
[12] = Tmax in cynomolgus monkey at 0.3 to 1 mg/kg, po; type: ADME, organism-based, Macaca fascicularis; conditions: in vivo, dose 0.3-1 mg/kg
Chemerin-like receptor 1 [13] = target: T2, Chemerin-like receptor 1 (Homo sapiens, UniProt Q99788); assay: Inhibition of human ChemR23 expressed in CAL-1 cells assessed as receptor internalization; type: functional, cell-based, CAL1
T2 sequence (Q99788 whole entry): T1 sequence (whole entry)

Chemerin-like receptor 1 [14] = target: T2, Chemerin-like receptor 1; assay: Inhibition of human ChemR23 expressed in CAL-1 cells assessed as reduction in chemerin-induced calcium signaling; type: functional, cell-based, CAL1
[15] = target: T1, Chemerin-like receptor 1 (Homo sapiens); assay: Binding affinity to ChemR23 (unknown origin) expressed in HEK293T cells at 40 to 1000 nM by flow cytometric analysis; type: cell-based; conditions: dose 40-1000 nM, DDE = dose-dependent effect
[16] = Drug concentration in cynomolgus monkey plasma at 0.3 mg/kg, po after 8 hrs; type: ADME, organism-based, Macaca fascicularis
[17] = MRT in cynomolgus monkey at 0.3 mg/kg, po; type: ADME, organism-based, Macaca fascicularis; conditions: in vivo
[18] = Cmax in cynomolgus monkey at 0.3 mg/kg, po; type: ADME, organism-based, Macaca fascicularis; design: dose 0.3 mg/kg, route po; conditions: in vivo
[19] = AUC(0 to infinity) in cynomolgus monkey at 0.3 mg/kg, po; type: ADME, organism-based, Macaca fascicularis; design: time infinity, dose 0.3 mg/kg, route po; conditions: in vivo
[20] = Tmax in cynomolgus monkey at 0.3 mg/kg, po; type: ADME, organism-based, Macaca fascicularis; conditions: in vivo
[21] = Half life in cynomolgus monkey at 0.3 mg/kg, po; type: ADME, organism-based, Macaca fascicularis; conditions: in vivo

SMILES: C[C@H](c1ccc(-c2cc(Cl)ccc2C(=O)NCCOCCOCCOCCOCCOCCOCCN=[N+]=[N-])cc1)N(CC1CC1)c1nc(C(=O)NS(=O)(=O)C2CC2)c(C2CC2)s1
EC50 (Chemerin-like receptor 1 [13]): 22 nM
IC50 (Chemerin-like receptor 1 [14]): 12 nM

SMILES: C[C@H](c1ccc(-c2cc(Cl)ccc2C(=O)O)cc1)N(CC1CC1)c1nc(C(=O)NS(=O)(=O)C2CC2)c(C2CC2)s1
IC80 [1]: 24 nM

SMILES: C[C@H](c1ccc(-c2cc(Cl)ccc2C(=O)NCCOCCOCCOCCOCCOCCOCCn2nnc3c2-c2ccccc2N(C(=O)CCNC(=O)CCOCCOCCOCCOCCNC(=O)c2ccc(C(=O)[O-])c(-c4c5ccc(=[N+](C)C)cc-5oc5cc(N(C)C)ccc45)c2)Cc2ccccc2-3)cc1)N(CC1CC1)c1nc(C(=O)NS(=O)(=O)C2CC2)c(C2CC2)s1
Activity [15]: Dde

SMILES: CONC(=O)c1ccc(Cl)cc1-c1ccc([C@@H](C)N(CC2CC2)c2nc(C(=O)NS(=O)(=O)C3CC3)c(C3CC3)s2)cc1
concentration at 8 h [16]: 116 ng/mL
MRT [17]: 5.3 h
Cmax [18]: 484 ng/mL
AUC(0-inf) [19]: 3290 ng·h/mL
Tmax [20]: 2.7 h
half-life [21]: 3.3 h

SMILES: C[C@H](c1ccc(-c2cc(Cl)ccc2C(N)=O)cc1)N(CC1CC1)c1nc(C(=O)NS(=O)(=O)C2CC2)c(C2CC2)s1
IC80 [1]: 9.8 nM
concentration at 8 h [16]: 68.9 ng/mL
MRT [17]: 3.4 h
Cmax [18]: 730 ng/mL
AUC(0-inf) [19]: 2950 ng·h/mL
Tmax [20]: 1.3 h
half-life [21]: 1.8 h

SMILES: C[C@H](c1ccc(-c2cc(Cl)ccc2C(=O)NCCOCCOCCOCCOCCOCCOCCn2nnc3c2-c2ccccc2N(C(=O)CCNC(=O)CCOCCOCCOCCOCCNC(=O)CCCC[C@@H]2SC[C@@H]4NC(=O)N[C@@H]42)Cc2ccccc2-3)cc1)N(CC1CC1)c1nc(C(=O)NS(=O)(=O)C2CC2)c(C2CC2)s1
IC50 (Chemerin-like receptor 1 [14]): 14 nM

SMILES: C[C@H](c1ccc(-c2cc(Cl)ccc2C(=O)NCCOCCOCCOCCOCCOCCOCCOCCOCCOCCOCCOCCOCCOCCOCCOCCOCCOCCOCCOCOCCOCCOCCOCCN=[N+]=[N-])cc1)N(CC1CC1)c1nc(C(=O)NS(=O)(=O)C2CC2)c(C2CC2)s1
EC50 (Chemerin-like receptor 1 [13]): 380 nM
IC50 (Chemerin-like receptor 1 [14]): 100 nM

Second part, the molecule after the results:

IC80 [1]: > 330 nM
SMILES: Cc1ccc(-c2nc(=O)o[nH]2)c(-c2ccc([C@@H](C)N(CC3CC3)c3nc(C(=O)NS(=O)(=O)C4CC4)c(-c4ccsc4)s3)cc2)c1

IC80 [1]: 57 nM
concentration at 8 h [2]: 996 ng/mL
Cmax [3]: 2810 ng/mL
half-life [4]: 3 h
MRT [5]: 6.1 h
AUC(0-inf) [6]: 21400 ng·h/mL
Tmax [7]: 4 h
SMILES: CNC(=O)c1ccc(C)cc1-c1ccc([C@@H](C)N(CC2CC2)c2nc(C(=O)NS(=O)(=O)C3CC3)c(C3CC3)s2)cc1

IC80 [1]: 18 nM
MRT [8]: 5.2 h
Cmax [9]: 5670 ng/mL
half-life [10]: 2.4 h
concentration at 8 h [2]: 1140 ng/mL
AUC(0-inf) [11]: 33800 ng·h/mL
Tmax [12]: 4 h
SMILES: Cc1ccc(-c2nc(=O)o[nH]2)c(-c2ccc([C@@H](C)N(CC3CC3)c3nc(C(=O)NS(=O)(=O)C4CC4)c(C(C)C)s3)cc2)c1

concentration at 8 h [2]: 4.2 ng/mL
Cmax [3]: 216 ng/mL
AUC(0-inf) [6]: 726 ng·h/mL
SMILES: Cc1sc(N(CC2CC2)[C@H](C)c2ccc(-c3cc(Cl)ccc3-c3nc(=O)o[nH]3)cc2)nc1C(=O)NS(C)(=O)=O

IC80 [1]: 110 nM
SMILES: Cc1sc(N(CC2CC2)[C@H](C)c2ccc(-c3cc(Cl)ccc3-c3nc(=O)o[nH]3)cc2)nc1C(=O)NS(=O)(=O)C1(C)CC1

IC80 [1]: > 330 nM
SMILES: Cc1sc(N(CC2CC2)[C@H](C)c2ccc(-c3cc(Cl)ccc3-c3nc(=O)o[nH]3)cc2)nc1C(=O)NC1CC1

IC80 [1]: 42 nM
SMILES: COc1cccc(-c2sc(N(CC3CC3)[C@H](C)c3ccc(-c4cc(C)ccc4-c4nc(=O)o[nH]4)cc3)nc2C(=O)NS(=O)(=O)C2CC2)c1

IC80 [1]: 74 nM
SMILES: Cc1ccc(-c2nc(=O)o[nH]2)c(-c2ccc([C@@H](C)N(CC3CC3)c3nc(C(=O)NS(=O)(=O)C4CC4)c(-c4ccncc4)s3)cc2)c1

concentration at 8 h [2]: 2090 ng/mL
Cmax [3]: 4190 ng/mL
half-life [4]: 3.2 h
MRT [5]: 6.5 h
AUC(0-inf) [6]: 39800 ng·h/mL
Tmax [7]: 4 h
SMILES: Cc1ccc(-c2nc(=O)s[nH]2)c(-c2ccc([C@@H](C)N(CC3CC3)c3nc(C(=O)NS(=O)(=O)C4CC4)c(C4CC4)s3)cc2)c1

IC80 [1]: 66 nM
concentration at 8 h [2]: 10 ng/mL
Cmax [3]: 722 ng/mL
AUC(0-inf) [6]: 1730 ng·h/mL
SMILES: Cc1sc(N(CC2CC2)[C@H](C)c2ccc(-c3cc(Cl)ccc3-c3nc(=O)o[nH]3)cc2)nc1C(=O)NS(=O)(=O)C1CCCC1

Reference: ChEMBL document CHEMBL5154705, “Discovery and mechanistic study of thiazole-4-acylsulfonamide derivatives as potent and orally active ChemR23 inhibitors with a long-acting effect in cynomolgus monkeys” (Bioorg Med Chem, 2022)
